From EP2308847B1, “Substituted pyridines as inhibitors of dipeptidyl peptidase IV and their application for the treatment of diabetes and related diseases” (EMC microcollections GmbH, priority 2009, dated 2011) come the findings set out here.

This experiment concerns the target T1, human recombinant DPP-IV (Homo sapiens, UniProt P27487).
T1 construct: purchased Enzo Life Sciences AK499-0001
Description: biochemical. On the procedure:
The potency of the tested compounds is described upon the degree in inhibition of DPP-IV cleavage of the chromogenic substrate Gly-Pro-pNA (pNA is p-nitroaniline), expressed as IC50 values.
The assay was performed in 96-well plates at 37°C. First the enzyme was preincubated with the test compounds for 10 min. Therefore each well was filled with 0.18 mU of enzyme and variable concentrations of the inhibitor. Each well was filled up with Tris buffer (50 mM, pH 7.5) to a final volume of 200 µL. For dilutions of all test compounds DMSO was used.
The assay was repeated 3 times for each test compound. IC50 values were calculated after plotting the data for up to eight inhibitor concentrations by mean.
By measuring the rate of hydrolysis of Gly-Pro-pNA at four different concentrations of substrate and inhibitor the type of inhibition was determined. […] For each concentration of inhibitor the initial rates were used for Lineweaver-Burk plot.

The IC50 is the concentration that inhibits the measured activity by half.

T1 sequence (P27487 whole entry): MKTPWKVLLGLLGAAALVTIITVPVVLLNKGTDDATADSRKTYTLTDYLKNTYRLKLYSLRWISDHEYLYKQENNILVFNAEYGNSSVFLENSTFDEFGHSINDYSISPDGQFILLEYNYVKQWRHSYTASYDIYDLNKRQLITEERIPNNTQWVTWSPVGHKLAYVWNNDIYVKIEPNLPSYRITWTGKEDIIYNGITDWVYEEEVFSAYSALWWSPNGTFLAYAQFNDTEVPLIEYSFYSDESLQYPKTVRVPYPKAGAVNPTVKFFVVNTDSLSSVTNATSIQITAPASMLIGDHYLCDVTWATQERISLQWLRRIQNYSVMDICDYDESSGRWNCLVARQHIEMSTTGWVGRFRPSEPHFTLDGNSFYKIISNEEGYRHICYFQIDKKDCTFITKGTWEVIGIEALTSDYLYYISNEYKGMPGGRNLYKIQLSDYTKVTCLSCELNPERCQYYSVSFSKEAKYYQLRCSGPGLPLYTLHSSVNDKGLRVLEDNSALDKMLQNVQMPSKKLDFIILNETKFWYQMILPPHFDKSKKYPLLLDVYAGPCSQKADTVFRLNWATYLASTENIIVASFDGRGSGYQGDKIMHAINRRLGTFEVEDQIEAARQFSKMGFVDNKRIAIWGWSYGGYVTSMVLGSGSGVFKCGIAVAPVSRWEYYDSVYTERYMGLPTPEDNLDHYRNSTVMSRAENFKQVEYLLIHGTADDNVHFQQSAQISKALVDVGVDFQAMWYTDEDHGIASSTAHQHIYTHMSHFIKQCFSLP

As to `Cc1nc(-c2ccc(Cl)cc2Cl)cc(C(=O)O)c1CN` [regioisomer (XV), reference compound], the IC50 was less than 10 µM.
As to `Cc1nc(C(=O)O)cc(-c2ccccc2F)c1CN` [(XIV)], the IC50 was less than 10 µM.
The same measure for `Cc1nc(C(=O)O)cc(-c2ccc(F)cc2)c1CN` [(XIII)]: less than 10 µM.
